Experimental data reported in patent publication US7629368B2, “Nitroderivatives as drugs for diseases having an inflammatory basis” (Nicox S.A., priority 2000, dated 2009).

Columns and labels:
[1] = test system: Human adenocarcinoma (HT29) cells; assay: Antiproliferative activity in cancerous cells, cellular growth by haemocytometer; assay type: cell-based; conditions: 96 hours, controls = 100, read-out: Proliferation %
Experimental: Determination of the Antiproliferative Activity of the Compounds of the Invention in Cancerous Cells.
Human adenocarcinoma (HT29) cells taken from colon affected by cancerous process were transferred into plates with 24 wells containing a cellular culture medium formed by 10% of foetal bovine serum, penicillin (50 U/ml), streptomycin ([…]) and PEG 400 (polyethylenglycol). After 24 hours a part of the plates is inoculated with the tested compounds dissolved in the carrier (PEG 400). 96 hours after the inoculation of the compounds the cellular growth was measured by haemocytometer. The results, reported in Table 2, are expressed as percentage of the cellular proliferation with respect to the controls.

[2] = test system: T24 human epithelial cells of bladder cancer; assay: Antiproliferative activity, MTT, bladder cancer line T24; assay type: cell-based; conditions: Epithelial cell, 96 h, 4 days, vs DMSO 1%, read-out: Inhibition of the proliferative activity (%); for inhibition at 100 µM: 10^-4 M; for inhibition at 10 µM: 10^-5 M; for inhibition at 1 µM: 10^-6 M
Experimental: (§1) Determination of the Antiproliferative Activity of the Compounds of the Invention in Cancerous Epithelial Cells of Bladder and Prostate.
(§2) The experiment was carried out by using three human epithelial cellular lines of the prostate cancer (PNT1A; LLNCaP; PC3) and three human epithelial cellular lines of the bladder cancer (T24; 647V; 1207), the various types of cellular lines are identified on the basis of the characteristics, in particular of the aggressiveness, of the cancerous process.
(§3) The cancerous cells are sown, with an initial concentration of 20,000 cells/cm^2, in plates having 96 wells with a cellular culture medium RPMI added with foetal bovine serum 5% and L-Glutamine 1%. Solutions in dimethylsulphoxide of the tested compounds at three different concentrations (10^−6 M; 10^−5M; 10^−4M) or the carrier (DMSO 1%) are added to the culture medium. 4 days after the treatment the cellular growth was measured by the method with MTT (3-[4,5-dimethylthiazol-2-yl]-2,5-diphenyltetrazolium bromide) de-scribed by Turner in: Turner T., Chen P., Goodly L. J., Wells A. Clin. Exp. Metastasis 1996, 14, 409-418. The results, reported in Table 3, are expressed as inhibition percentage of the cellular proliferation determined by measuring the cellular proliferation in the cellular cultures treated with the tested compounds with respect to that measured in cellular cultures treated with dimethylsulphoxide 1%.

[3] = test system: LNCaP human epithelial cells of prostate cancer; assay: Antiproliferative activity, MTT, prostate cancer line LNCaP; assay type: cell-based; conditions: 96 h, 4 days, vs DMSO 1%, read-out: Inhibition of the proliferative activity (%); for inhibition at 100 µM: 10^-4 M; for inhibition at 10 µM: 10^-5 M; for inhibition at 1 µM: 10^-6 M
Experimental: as §1, §2, §3

[4] = test system: PNT1A human epithelial cells of prostate cancer; assay: Antiproliferative activity, MTT, prostate cancer line PNT1A; assay type: cell-based; conditions: 96 h, 4 days, vs DMSO 1%, read-out: Inhibition of the proliferative activity (%); for inhibition at 100 µM: 10^-4 M; for inhibition at 10 µM: 10^-5 M; for inhibition at 1 µM: 10^-6 M
Experimental: as §1, §2, §3

[5] = test system: human epithelial cellular lines of the prostate cancer and of the bladder cancer; assay: Antiproliferative activity in prostate and bladder cancer lines, summary in words; assay type: cell-based
Experimental: as §2, §3
The compound of Ex. 7, reported in the Table with the simplified denomination of nitrooxybutyl ester of the aspirin der. with ferulic ac. is active, at 10^−5 concentrations, in prostate tumours as shown by the results obtained on the cellular lines LNCaP and PC3.

[6] = test system: 1207 human epithelial cells of bladder cancer; assay: Antiproliferative activity, MTT, bladder cancer line 1207; assay type: cell-based; conditions: Epithelial cell, 96 h, 4 days, vs DMSO 1%, read-out: Inhibition of the proliferative activity (%); for inhibition at 100 µM: 10^-4 M; for inhibition at 10 µM: 10^-5 M; for inhibition at 1 µM: 10^-6 M
Experimental: as §1, §2, §3

[7] = test system: 647V human epithelial cells of bladder cancer; assay: Antiproliferative activity, MTT, bladder cancer line 647V; assay type: cell-based; conditions: 96 h, 4 days, vs DMSO 1%, read-out: Inhibition of the proliferative activity (%); for inhibition at 100 µM: 10^-4 M; for inhibition at 10 µM: 10^-5 M; for inhibition at 1 µM: 10^-6 M
Experimental: as §1, §2, §3

[8] = test system: PC3 human epithelial cells of prostate cancer; assay: Antiproliferative activity, MTT, prostate cancer line PC3; assay type: cell-based; conditions: Epithelial cell, 96 h, 4 days, vs DMSO 1%, read-out: Inhibition of the proliferative activity (%); for inhibition at 100 µM: 10^-4 M; for inhibition at 10 µM: 10^-5 M; for inhibition at 1 µM: 10^-6 M
Experimental: as §1, §2, §3

[9] = test system: liver injury induced by concanavalin A; assay: Protection from liver injury induced by concanavalin A; assay type: in vivo; conditions: ip; plasmatic glutamic-pyruvic transaminase vs treated control group (=100); 200 mg/kg intraperitoneal; 8 hours after concanavalin A 0.3 mg/rat i.v.
Source text: Determination of the capability of the compounds of the invention to protect the animals from the liver injury induced by concanavalin A.
The model in vivo used in the present example has been described in Tiegs G, Hentshel J, A Wendel. A T cell-dependent experimental liver injury in mice induced by Concanavalin A. J. Clin. Invest. 1992; 90:196-203.
The animals ([…] of Swiss stock weighing about 20 g) are divided in groups of at least No. 10 animals for group.
The animals receive concanavalin and solvent (treated control group), solvent (polyethylene glycol 400-untreated control group), concanavalin and tested compound dissolved in the solvent (treated groups).
Rats are treated intravenously with concanavalin A (0.3 mg/rat), and after 5 minutes they receive by intraperitoneal injection the tested compounds, at the doses reported in Table 1, dissolved in polyethylenglycol 400.
Eight hours after the concanavalin A injection all the animals were sacrificed and the blood collected and examined. The data, reported in Table 1, are expressed as value of the plasmatic glutamic-pyruvic transaminase percentage of the animals treated with the tested compound with respect to the animals of the treated control group.

Row | SMILES | inhibition at 100 µM [2] [%] | inhibition at 10 µM [2] [%] | inhibition at 1 µM [2] [%] | inhibition at 100 µM [3] [%] | inhibition at 10 µM [3] [%] | inhibition at 1 µM [3] [%] | inhibition at 100 µM [4] [%] | inhibition at 10 µM [4] [%] | inhibition at 1 µM [4] [%] | inhibition at 100 µM [6] [%] | inhibition at 10 µM [6] [%] | inhibition at 1 µM [6] [%] | inhibition at 100 µM [7] [%] | inhibition at 10 µM [7] [%] | inhibition at 1 µM [7] [%] | inhibition at 100 µM [8] [%] | inhibition at 10 µM [8] [%] | inhibition at 1 µM [8] [%] | further results
1 | CC(=O)Oc1ccccc1C(=O)Oc1ccc(CO[N+](=O)[O-])cc1 [Ex. 6, 2-(acetyloxy)benzoic Acid 4-(nitrooxymethyl)phenyl ester] | – | – | – | – | – | – | – | – | – | – | – | – | – | – | – | – | – | – | melting point: 86 to 88 °C; activity at 10 µM ([1]; HT-29, 10 μM): 0%
2 | COc1cc(/C=C/C(=O)OCCCCO[N+](=O)[O-])ccc1OC(=O)c1ccccc1OC(C)=O [Ex. 7, trans-3-[4-[2-(acetyloxy)benzoyloxy]-3-methoxyphenyl]-2-propenoic acid 4-(nitrooxy)butyl ester] | 55 | 0 | 2 | 81 | 47 | 20 | 72 | 0 | 0 | 82 | 24 | 4 | 50 | 0 | 0 | 69 | 30 | 1 | activity at 300 µM ([1]; HT-29, 300 μM): 50%; activity in prostate tumours (in words) ([5]; 10^-5 concentrations, cellular lines LNCaP and PC3): active
3 | CC1=C(CC(=O)OCCCCO[N+](=O)[O-])c2cc(F)ccc2/C1=C\c1ccc([S+](C)[O-])cc1 (stereo not shown) [Ex. 18] | 93 | 82 | 0 | 88 | 74 | 17 | 81 | 38 | 3 | 88 | 74 | 0 | 92 | 80 | 9 | 74 | 68 | 5 | response vs control in vivo at 200 mg/kg [9]: 18%; activity at 50 µM ([1]; HT-29, 50 μM): 0%; inhibitory effect on the proliferation of all kinds of cancerous cells examined (in words) ([5]; 10^-5 M, all six prostate and bladder lines): strong inhibitory effect
